Experimental data reported in article PMC11078956, “Structural investigation of interactions between halogenated flavonoids and the lipid membrane along with their role as cytotoxic agents” (Scientific Reports, 2024).

Key:
[1] = tested on: RDSVS-TCC1 cells; assay: MTT cytotoxicity, RDSVS-TCC1; type: cell-based, canine; conditions: Canis lupus familiaris, 72 h, mean ± SD, read-out: IC50 values after 72 h
Source text: (§1) The study involved four canine cancer cell lines: RDSVS-TCC1 and K9NK (bladder cancer), CLBL-1 (B-cell lymphoma), GL-1 (B/T-cell leukemia) and noncancerous cell line CF2TH (fetal canine thymus). CLBL-1 was obtained from Barbara C.Ruetgen from the Institute of Immunology, Department of Pathobiology, University of Veterinary Medicine, Vienna[48]. GL-1 from Yasuhito Fujino and Hajime Tsujimoto of the University of Tokyo, Department of Veterinary Internal Medicine[49]. The CF2TH cell line was purchased from American Type Culture Collection (ATCC, Rockville, MD, USA).
(§2) The cell lines were maintained in RPMI- 1640 (CLBL-1, GL-1 and CF2TH) (Gibco, Grand Island, NY, USA) or DMEM (Institute of Immunology and Experimental Therapy, Polish Academy of Sciences, Wrocław, Poland) (RDSVS-TCC1, K9NK) culture medium supplemented with 10% fetal bovine serum FBS (Gibco, Grand Island, NY, USA), 100 units/mL penicillin and […] streptomycin and 1% of L-glutamine (Sigma Aldrich, Steinheim, Germany).
(§3) The cytotoxicity assay was determined by MTT test after 72 h of treatment, according to the procedure described previously[50] with minor modifications.
(§4) In summary, the cells plated at the density of 3*10^4 (k9NK, RDSVS-TCC1), 2*10^5 (CLBL-1, GL-1) and 7.5*10^3 (CF2TH) per mililiter were seeded in 96-well plates (NUNC, Denmark).
(§5) The concentration of tested flavonoids was in the range 1.25–50 µM and DMSO concentration was < 1% in each dilution which is considered harmless to the cells). After incubation for 72 h, 10 µl of 3-(4,5-dimethylthiazol-2-yl)-2,5-diphenyltetrazolium bromide (MTT) solution was added to each well followed by 4 h incubation, then 40 μL of lysis buffer were added. The optical density (OD) of formazan formed from MTT was measured after 24 h using a spectrophotometric microplate reader (Spark, Tecan, Männedorf, Switzerland) at […] 570 nm.
(§6) The results were: determined from more than three independent experiments (three wells each) and presented as mean IC50 value ± SD.

[2] = tested on: K9NK cells; assay: MTT cytotoxicity, K9NK; type: cell-based, canine; conditions: Canis lupus familiaris, 72 h, mean ± SD, read-out: IC50 values after 72 h
Source text: as §1, §2, §3, §4, §5, §6

[3] = tested on: GL-1 cells; assay: MTT cytotoxicity, GL-1; type: cell-based, canine; conditions: Canis lupus familiaris; GL-1, MTT, 72 h, mean ± SD; read-out: IC50 values after 72 h
Source text: as §1, §2, §3, §4, §5, §6

[4] = tested on: CLBL-1 cells; assay: MTT cytotoxicity, CLBL-1; type: cell-based, canine; conditions: Canis lupus familiaris; CLBL-1, MTT, 72 h, mean ± SD; read-out: IC50 values after 72 h
Source text: as §1, §2, §3, §4, §5, §6

[5] = tested on: CF2TH cells; assay: MTT cytotoxicity, CF2TH normal cell line; type: cell-based, canine; conditions: Canis lupus familiaris, 72 h, mean ± SD, read-out: IC50 values after 72 h
Source text: as §1, §2, §3, §4, §5, §6

[6] = tested on: RDSVS-TCC1, GL-1, CLBL-1, CF2TH cells; assay: MTT cytotoxicity, all lines tested except K9NK; type: cell-based, canine; conditions: Canis lupus familiaris, 72 h
Source text: as §1, §2, §3, §4, §5, §6

[7] = Hemolysis of red blood cells; type: cell-based; conditions: human, human red blood cells (erythrocytes), read-out: degree of haemolysis
Experimental: The cytotoxicity level of the compounds was assessed through a haemolytic activity test, measuring the impact of six compounds at concentrations of […] on human red blood cells (RBCs). According to toxicity categorization, compounds are considered highly toxic if they cause a haemolysis rate of 90–100% and are considered non-toxic if the haemolysis rate falls within the range of 0–9%[28].
Hemolysis, a method to assess the release of hemoglobin from red blood cells (RBCs), was comprehensively explained in our prior research.
For erythrocytes with a hematocrit level of 12%, the compounds were introduced at concentrations of 10, 20, 40 and 60 μM. The prepared samples were kept at 37 °C for 1 and 24 h.
After the incubation period, the samples underwent centrifugation, and the hemoglobin concentration in the supernatants was quantified using a UV–VIS spectrophotometer (Specord 40, AnalytikJena) at a wavelength of 540 nm. The percentage of RBCs hemolysis were determined by comparing the absorbance of hemoglobin in the tested samples to the absorbance of hemoglobin in completely hemolyzed cells (100%). Samples achieving total hemolysis (100%) were generated by adding distilled water.

[8] = tested on: breast cancer cells MCF-7; set-up: method as in PMID 32364671; conditions: cited from earlier work

| melting point [°C] | SMILES | IC50 [1] [µM] | IC50 [2] [µM] | IC50 [3] [µM] | IC50 [4] [µM] | IC50 [5] [µM] | IC50 [6] [µM] | hemolysis at 24 h, 40 µM ([7]; 40 μM) [%] | hemolysis at 24 h, 50 µM ([7]; 50 μM) [%] | IC50 [8] [µM] | hemolysis at 24 h, 30 µM ([7]; 30 μM) [%] |
| --- | --- | --- | --- | --- | --- | --- | --- | --- | --- | --- | --- |
|  | O=c1cc(-c2ccc(Cl)cc2)oc2ccccc12 [D3, 4′-chloroflavone] | 28.2 ± 5.62 | 19.4 ± 6.75 | 35.1 ± 6.17 | 32.8 ± 2.11 | 28.4 ± 5.02 | ~30 |  |  |  |  |
| 109 to 110 | O=c1cc(-c2ccccc2Cl)oc2ccccc12 [D1, 2′-chloroflavone] | 32.6 ± 8.04 | 59.9 ± 14.7 | 26.5 ± 3.05 | 26.6 ± 3.61 | 28.2 ± 6.6 | ~30 |  |  |  |  |
|  | O=c1cc(-c2ccccc2)oc2c(Br)cc(Cl)cc12 [D6, 8-bromo-6-chloroflavone] | 37.7 ± 14.4 | 29.1 ± 16.2 | 47.2 ± 1.41 | 38.1 ± 7.81 | 38.1 ± 7.87 |  |  |  |  |  |
|  | O=c1cc(-c2cccc(Cl)c2)oc2ccccc12 [D2, 3′-chloroflavone] | 31.6 ± 5.97 | 31.2 ± 6.87 | 26.5 ± 4.57 | 26.3 ± 6.33 | 22.9 ± 6.88 | ~30 | 16 ± 1.78 | 22.7 ± 1.98 |  |  |
|  | O=c1cc(-c2ccccc2)oc2c(Br)c(O)c(O)c(O)c12 [8-bromobaicalei] |  |  |  |  |  |  |  |  | 10 ± 3 |  |
|  | O=c1cc(-c2ccccc2)oc2ccc(Cl)cc12 [D4, 6-chloroflavone] | 58.7 ± 13.3 | 35.6 ± 3.41 | 62.4 ± 2.89 | 74.4 ± 28.7 | 80.9 ± 14.1 |  |  |  |  | 10.8 ± 5.46 |
|  | O=c1cc(-c2ccccc2)oc2c(Cl)cc(Cl)cc12 [D5, 6,8-dichloroflavone] | 43 ± 11.3 | 30.5 ± 13.8 | 38.8 ± 6.48 | 76.4 ± 23.2 | 28.5 ± 18 |  |  |  |  |  |
